According to patent US8729102B2, “Bicyclic compound” (Takeda Pharmaceutical Company Limited, priority 2010, dated 2014):

Assays:
[1] = biological target: T1, Human ACC2 (ACC2 (Nd), N terminal deleted) (Homo sapiens, UniProt O00763); assay: Measurement of ACC2 inhibitory activity (malachite green, recombinant ACC2 (Nd)); type: biochemical; settings: 10 μM test compound, 20 min preincubation at 30° C., 20 min reaction; for inhibition at 10 µM: read-out: ACC2 inhibitory rate at 10 μM (%)
T1 construct: made in house; host or cells: SF-9 insect cells (baculovirus)
Description: The ACC2 inhibitory action of the compound of the present invention was evaluated by the following method.
(1) Cloning of Human ACC2 Gene and Preparation of Recombinant Baculovirus
Human ACC2 gene was cloned by PCR using a human skeletal muscle cDNA library (Clontech) as a template and Primer 1 and Primer 2 shown below. Primer 1 and Primer 2 were prepared by adding SalI, XbaI restriction enzyme recognition sequences based on the information of the base sequence of human ACC2 gene (Genbank Accession U89344).
(§1) PCR was performed using Pyrobest DNA polymerase (TAKARA BIO INC.). The obtained PCR product was cloned to pT7 Blue vector (Novagen) and after confirmation of the base sequence, digested with restriction enzymes SalI and XbaI. The obtained DNA fragment was inserted into pFAST-BacHTa (Invitrogen) digested with restriction enzymes Sail and XbaI to give expression plasmid ACC2/pFAST-BacHTa.
A plasmid for expression of ACC2 without a mitochondrial targeting sequence was prepared by PCR using the expression plasmid as a template, and Primer 3 (salI restriction enzyme recognition sequence was added) and Primer 4, which are prepared by reference to the information of human ACC2 gene base sequence (Genbank Accession U89344).
as §1, with “Pyrobest-DNA” for “Pyrobest DNA”, “Aflil.” for “XbaI.”, “ACC2/pFAST-BacHTa” for “pFAST-BacHTa (Invitrogen)”, “SalI” for “Sail”, “AfilI” for “XbaI”, “ACC2mito7/pFAST-BacHTa.” for “ACC2/pFAST-BacHTa.”
Using the expression plasmid ACC2mito7/pFAST-BacHTa and BAC-TO-BAC Baculovirus Expression System (Invitrogen), virus stock BAC-ACC2 of recombinant Baculovirus (N terminal deleted (hereinafter Nd)) was prepared.
(2) Preparation of ACC2 (Nd) Protein
SF-9 cells (Invitrogen) were inoculated to a medium (2 L) for insect cells (Sf-900IISFM medium (Invitrogen) containing 10% fetal bovine serum (Trace), 50 mg/L Gentamicin (Invitrogen), 0.1% Pluronic F-68 (Invitrogen)) at 0.5×10^6 cells/mL, and cultured with shaking in Wave Bioreactor (Wave) at 27° C., 20 rpm, rocking angle 6°, oxygen concentration 30%.
On day 4 of the culture, 3 L of the medium for insect cells was added, the rocking angle was set to 8°, and the cells were further cultured. On day 5 of the culture, 100 mL of recombinant Baculovirus BAC-ACC2 (Nd) was added, 5 L of the medium for insect cells was further added, the rocking angle was set to 11°, and the cells were cultured for 3 days. The culture medium was centrifuged at 1000×g for 10 min to give virus-infected cells. The cells were washed with phosphate buffered saline (Invitrogen) and centrifuged under the same conditions. The obtained cells were cryopreserved at −80° C.
The cryopreserved cells were thawed in ice and suspended in 900 mL of 25 mM HEPES buffer (pH 7.5) containing 10% Glycerol, 0.13 M NaCl, 1 mM EDTA, 25 mM Sodium β-Glycerophosphate and 1 mM Sodium Orthovanadate, and supplemented with Complete Protease Inhibitor (Nippon Boehringer Ingelheim Co., Ltd.). The obtained suspension was homogenized three times in a polytron homogenizer (Kinematica) at 20,000 rpm for 30 sec. The obtained cell disruption solution was clarified by centrifugation at 31000×g for 60 min, and filtered through a 0.45 μm filter. The filtrate was passed through a column packed with 60 mL of Ni-NTA Super Flow Gel (QUIAGEN) at a flow rate of about 5 mL/min. The column was washed with buffer A (50 mM HEPES (pH 7.5) containing 0.3 M NaCl), further washed with buffer A containing 20 mM Imidazole, and eluted with buffer A containing 100 mM Imidazole. The eluate was concentrated with Vivaspin 20 (Vivascience) with a molecular weight cut off of 30K. The obtained concentrate was dialyzed against 50 mM HEPES (pH 7.5) containing 10 mM MgCl2, 2 mM Dithiothreitol, 10 mM Tripotassium Citrate and 0.3 M NaCl. […]

[2] = tested on: Malonyl-CoA content of femoral muscle; assay: Malonyl CoA content measurement in femoral muscle after gavage (LC/MS/MS); type: in vivo; settings: male F344/Jcl rats, 10 mg/kg by gavage, femoral muscle 2 hours after dosing; Mean ± S.D.; vehicle 1.955 ± 0.496
Description: Male F344/Jcl rats (CLEA Japan, Inc., Tokyo) purchased at 5 weeks of age were acclimated to the rearing environment, and used for an experiment of malonyl CoA content measurement at 10 weeks of age. In the experiment of malonyl CoA content measurement, the body weight was measured in the morning (8:00-11:00) 3 days before administration of a test compound, and the rats were divided into groups free of dispersion in the body weight between administration groups. The test compound was prepared as a 0.5% methyl cellulose (Wako) suspension to a dose of 5 mL/kg, in the afternoon (12:00-17:00) of one day before administration by gavage, and administered by gavage according to the body weight on the day of test compound administration. The vehicle group was administered with a solvent (0.5% methyl cellulose) alone by gavage. […]
A sample homogenate for the malonyl CoA measurement was prepared by disrupting a frozen tissue with a measured weight in a Multi-beads shocker (MB400U, Yasui Kikai Corporation), adding an extract (6% perchloric acid:aqueous di-n-butylammonium acetate solution (IPC-DBAA, 0.5 mol/L, TOKYO CHEMICAL INDUSTRY CO., LTD.)=1000:1, 500 μL) containing an internal standard substance ([^13C3]-malonyl CoA lithium salt (100 pmol/mL, Sigma-Aldrich)), and applying the mixture to the Multi-beads shocker again. […]

T1 sequence (O00763 117-2458 limits assumed, stated change not applied): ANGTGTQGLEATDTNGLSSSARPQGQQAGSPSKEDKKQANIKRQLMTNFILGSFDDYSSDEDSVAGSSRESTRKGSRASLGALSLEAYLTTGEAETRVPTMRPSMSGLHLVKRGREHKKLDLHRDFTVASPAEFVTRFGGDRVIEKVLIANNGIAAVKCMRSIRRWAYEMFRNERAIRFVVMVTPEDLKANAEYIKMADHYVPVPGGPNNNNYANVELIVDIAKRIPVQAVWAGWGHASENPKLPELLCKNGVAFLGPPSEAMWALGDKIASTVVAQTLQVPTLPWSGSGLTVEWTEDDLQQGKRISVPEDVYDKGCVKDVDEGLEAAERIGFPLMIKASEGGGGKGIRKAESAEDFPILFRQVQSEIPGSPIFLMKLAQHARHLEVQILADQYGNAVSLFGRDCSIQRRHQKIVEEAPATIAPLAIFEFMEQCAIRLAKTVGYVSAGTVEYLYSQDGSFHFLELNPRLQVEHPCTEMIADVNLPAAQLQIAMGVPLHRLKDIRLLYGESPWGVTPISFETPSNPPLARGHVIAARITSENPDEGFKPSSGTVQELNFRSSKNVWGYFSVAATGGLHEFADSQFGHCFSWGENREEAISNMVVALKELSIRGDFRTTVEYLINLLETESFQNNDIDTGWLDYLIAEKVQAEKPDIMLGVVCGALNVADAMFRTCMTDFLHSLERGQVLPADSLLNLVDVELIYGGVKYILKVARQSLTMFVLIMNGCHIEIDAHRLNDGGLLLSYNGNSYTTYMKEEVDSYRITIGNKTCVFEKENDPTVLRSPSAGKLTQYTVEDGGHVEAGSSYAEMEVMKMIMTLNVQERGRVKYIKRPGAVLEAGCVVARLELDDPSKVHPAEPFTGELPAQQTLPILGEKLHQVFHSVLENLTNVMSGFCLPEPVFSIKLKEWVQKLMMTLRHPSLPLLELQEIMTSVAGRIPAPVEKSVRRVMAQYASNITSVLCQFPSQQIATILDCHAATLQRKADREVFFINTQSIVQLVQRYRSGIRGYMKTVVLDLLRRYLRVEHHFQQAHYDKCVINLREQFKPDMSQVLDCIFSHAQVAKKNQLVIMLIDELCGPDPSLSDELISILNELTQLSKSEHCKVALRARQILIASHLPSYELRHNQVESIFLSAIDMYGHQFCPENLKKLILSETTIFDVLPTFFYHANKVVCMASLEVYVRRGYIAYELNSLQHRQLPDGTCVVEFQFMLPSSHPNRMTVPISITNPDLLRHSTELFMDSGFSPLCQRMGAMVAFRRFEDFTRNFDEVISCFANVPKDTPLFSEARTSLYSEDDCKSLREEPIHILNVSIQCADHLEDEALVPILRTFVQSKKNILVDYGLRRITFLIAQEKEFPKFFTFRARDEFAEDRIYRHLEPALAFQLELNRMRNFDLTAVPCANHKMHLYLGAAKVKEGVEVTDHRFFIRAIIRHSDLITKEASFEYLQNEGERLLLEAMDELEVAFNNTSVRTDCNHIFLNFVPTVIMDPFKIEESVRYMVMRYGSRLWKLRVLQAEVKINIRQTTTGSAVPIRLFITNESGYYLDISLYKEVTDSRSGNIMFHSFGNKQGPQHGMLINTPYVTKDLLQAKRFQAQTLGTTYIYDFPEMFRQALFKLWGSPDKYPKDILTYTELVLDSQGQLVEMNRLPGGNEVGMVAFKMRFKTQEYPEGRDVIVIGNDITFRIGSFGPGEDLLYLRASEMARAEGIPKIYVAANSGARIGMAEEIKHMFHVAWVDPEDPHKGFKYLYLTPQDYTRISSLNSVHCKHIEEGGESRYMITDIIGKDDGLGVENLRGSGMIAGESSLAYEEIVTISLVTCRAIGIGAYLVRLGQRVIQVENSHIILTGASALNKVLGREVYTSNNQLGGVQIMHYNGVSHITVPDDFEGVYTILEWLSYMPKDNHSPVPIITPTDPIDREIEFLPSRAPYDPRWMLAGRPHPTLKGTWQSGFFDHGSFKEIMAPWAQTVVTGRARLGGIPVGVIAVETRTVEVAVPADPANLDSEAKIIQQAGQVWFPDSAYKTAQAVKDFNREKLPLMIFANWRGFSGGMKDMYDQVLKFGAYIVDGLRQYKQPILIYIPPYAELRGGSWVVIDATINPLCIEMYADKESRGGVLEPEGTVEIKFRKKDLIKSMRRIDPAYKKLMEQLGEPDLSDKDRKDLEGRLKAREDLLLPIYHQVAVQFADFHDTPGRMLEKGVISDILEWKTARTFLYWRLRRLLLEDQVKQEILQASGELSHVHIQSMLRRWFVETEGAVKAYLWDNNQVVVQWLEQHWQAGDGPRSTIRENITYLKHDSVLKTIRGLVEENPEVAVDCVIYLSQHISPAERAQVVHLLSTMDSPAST

Structure (SMILES) | melting point [°C] | inhibition at 10 µM [1] [%] | ACC2 inhibitory rate at 10 μM (%) ([1]; 10 µM) | malonyl-CoA (nmol/g-tissue), Malonyl-CoA content of femoral muscle at 2 hours after dosing [2] [nmol/g-tissue]
CCOc1ccc2nc(-c3ccc(OC[C@H](C)NC(C)=O)cn3)oc2c1 [Example 28, N-[(1S)-2-{[6-(6-ethoxy-1,3-benzoxazol-2-yl)pyridin-3-yl]oxy}-1-methylethyl]acetamide] | – | 83 | – | 0.663 ± 0.119
CC(=O)N[C@@H](C)COc1cnc(-c2nc3ccc(OCC4CC4(F)F)cc3o2)c(F)c1 (stereo partly drawn) [Example 110, Diastereomer of N-{(1S)-2-[(6-{6-[(2,2-difluorocyclopropyl)methoxy]-1,3-benzoxazol-2-yl}-5-fluoropyridin-3-yl)oxy]-1-methylethyl}acetamide (retention time: long)] | – | – | 91 | –
CC(=O)N[C@@H](C)COc1ccc(-c2nc3ccc(OCC4CC4)cn3c2F)cc1 [Example 92, N-[(1S)-2-{4-[6-(cyclopropylmethoxy)-3-fluoroimidazo[1,2-a]pyridin-2-yl]phenoxy}-1-methylethyl]acetamide] | – | 93 | – | –

Second part, led by results:

melting point [°C] | inhibition at 10 µM [1] [%] | ACC2 inhibitory rate at 10 μM (%) ([1]; 10 µM) | Structure (SMILES) | malonyl-CoA (nmol/g-tissue), Malonyl-CoA content of femoral muscle at 2 hours after dosing [2] [nmol/g-tissue]
179 to 180 | 101 | – | CC(=O)N[C@@H](C)COc1ccc(-c2nc3ccc(OCC4CC4)cc3o2)nc1 [Example 1, N-[(1S)-2-({6-[6-(cyclopropylmethoxy)-1,3-benzoxazol-2-yl]pyridin-3-yl}oxy)-1-methylethyl]acetamide] | –
158 to 159 | 95 | – | CC(=O)N[C@@H](C)COc1cnc(-c2nc3ccc(OCC4CC4)cc3o2)c(F)c1 [Example 6, N-[(1S)-2-({6-[6-(cyclopropylmethoxy)-1,3-benzoxazol-2-yl]-5-fluoropyridin-3-yl}oxy)-1-methylethyl]acetamide] | 0.513 ± 0.048
156 to 157 | 92 | – | CC(=O)N[C@@H](C)COc1cc(-c2nc3cc(OCC4CC4)ccc3o2)on1 [Example 2, N-[(1S)-2-({5-[5-(cyclopropylmethoxy)-1,3-benzoxazol-2-yl]isoxazol-3-yl}oxy)-1-methylethyl]acetamide] | –
– | 99 | – | CC(=O)N[C@@H](C)COc1ccc(-n2nc3cc(OCC4CC4)ccc3c2F)cc1 [Example 73, N-[(1S)-2-{4-[6-(cyclopropylmethoxy)-3-fluoro-2H-indazol-2-yl]phenoxy}-1-methylethyl]acetamide] | –
